From ChEMBL document CHEMBL3301472, “MMV Malaria Box HIV and cytotoxicity screening”

Legend:
Assay type in all cases: toxicity, cell-based
[1] = MMV: MTT Cytotoxicity Assay Day 3 pi, U87-CD4-CCR5 cells, % cell death @ 5mM compound; settings: human, u87-cd4-ccr5, 5000 µM
[2] = MMV: MTT Cytotoxicity Assay Day 3 pi, U87-CD4-CXCR4 cells, % cell death @ 5mM compound; settings: human, u87-cd4-cxcr4, 5000 µM
[3] = MMV: MTT Cytotoxicity Assay Day 7 pi of Assay #6 (compound washed out Day 1 pi), U87-CD4-CCR5 cells, % cell death @ 5mM compound; settings: human, u87-cd4-ccr5, 5000 µM
[4] = MMV: MTT Cytotoxicity Assay Day 7 pi of Assay #7 (compound washed out Day 1 pi), U87-CD4-CXCR4 cells, % cell death @ 5mM compound; settings: human, u87-cd4-cxcr4, 5000 µM
[5] = MMV: MTT Cytotoxicity Assay Day 7 pi of Assay #10 (NO washout), U87-CD4-CCR5 cells, % cell death @ 5mM compound; settings: human, u87-cd4-ccr5, 5000 µM
[6] = MMV: MTT Cytotoxicity Assay Day 7 pi of Assay #11 (NO washout), U87-CD4-CXCR4 cells, % cell death @ 5mM compound; settings: human, u87-cd4-cxcr4, 5000 µM

SMILES | % Cell Death [1] | % Cell Death [2] | % Cell Death [3] | % Cell Death [4] | % Cell Death [5] | % Cell Death [6]
Cc1ccc(-c2cc3c(nn2)-c2ccccc2C3=O)cc1 | 46 | 57 | 48 | 58 | 106 | 96
Cc1ccc(N2C(=O)C3C(C2=O)C2(c4ccccc4)C(=O)C3(c3ccccc3)C(c3ccccc3)=C2c2ccccc2)cc1 (stereo unspecified) | -31 | 36 | 0 | 5 | 33 | -35
CCOC(=O)c1cn(CC)c2cc(N(C)CCc3ccc(OC)c(OC)c3)c(F)cc2c1=O | 22 | -10 | -4 | -40 | 27 | -17
CC(C)(C)c1ccc(O)c(CNC2CCCCC2)c1 | 108 | 66 | 69 | 96 | 132 | 101
CC1CN(C(=O)c2sc3ccccc3c2Cl)CC(C)O1 (stereo unspecified) | 107 | 47 | 7 | 45 | 124 | 105
COc1ccc(C2=C(c3ccc(OC)cc3)C3(c4ccccc4)C(=O)C2(c2ccccc2)C2C(=O)N(c4ccc(C)cc4)C(=O)C23)cc1 (stereo unspecified) | -42 | 28 | -10 | 13 | 41 | -6
CCOC(=O)c1c(NC(=O)c2ccccc2)sc2c(O)c(CN(CC)CC)ccc12 | -7 | -8 | -2 | 40 | 25 | 25
Cc1cc(Nc2ccc(C)c(Cl)c2)n2nc(C(F)(F)F)nc2n1 | 11 | 28 | -35 | -28 | 42 | 10
COc1ccc(C=C2SC(=N)N(c3ccccc3OC)C2=O)cc1 | 100 | 101 | 100 | 95 | 143 | 93
Cc1ccc(-c2cc3nc4c(c(O)n3n2)CCCC4)cc1 | 70 | 56 | 24 | 52 | 113 | 97
COc1ccccc1CNC(=O)CCn1c(=O)[nH]c2ccccc2c1=O | -7 | 12 | 7 | -15 | 16 | -16
CCOC(=O)c1cn(CC)c2cc(N3CCCCC3)c(F)cc2c1=O | 106 | 101 | 99 | 97 | 115 | 103
Cc1cc(C=C2SC(=Nc3ccccc3)N(C3CCCC3)C2=O)c(C)n1-c1ccc(Cl)cc1 | 96 | 65 | 8 | 36 | 140 | 90
CCOc1ccc(-c2nonc2NC(=O)c2cccc(C)c2)cc1OCC | -8 | 13 | -8 | -14 | 19 | -48
CCCc1c(CC)c(=N)c2ccccc2n1C | 33 | 21 | -10 | -9 | -7 | -23
c1ccc(Cn2c(N=Nc3c(Nc4ccccc4)ccc4ccccc34)nc3ccccc32)cc1 | 92 | 97 | 95 | 99 | 83 | 101
